Measurements reported in US20240208978A1, “IDH MUTANT INHIBITOR AND USE THEREOF” (WIGEN BIOMEDICINE TECHNOLOGY (SHANGHAI) CO., LTD., priority 2021, published 2024).

Biological target: T1, mIDH1 R132H (Homo sapiens, UniProt O75874, R132H)
T1 construct: expressed in transfected cells; host or cells: U87MG
Experiment: Detection of 2-HG in supernatant of U87-IDH1 R132H cells
Assay type: cell-based
Conditions: U-87 MG, 72 h, U87MG cells overexpressing mIDH1 R132H, LC-MS-MS; for inhibition at 0.001 µM: 1 nM compound, read-out: Inhibition rate on 2-HG in the supernatant of U87-IDH R132H cells, 1 nM; for inhibition at 0.01 µM: 10 nM compound, read-out: Inhibition rate on 2-HG in the supernatant of U87-IDH R132H cells, 10 nM; for inhibition at 0.1 µM: 100 nM compound, read-out: Inhibition rate on 2-HG in the supernatant of U87-IDH R132H cells, 100 nM
Procedure: U87MG cells overexpressing the mIDH1 R132H mutation or HT1080 cells carrying IDH1 R132C were seeded in a 48-well plate and a 96-well plate at 50,000 cells/well and 10,000 cells/well, respectively. After the cells were incubated overnight for adhesion, the supernatants were removed. The cell culture media containing serially diluted compounds were added, and the cells were incubated for 72 h. After 72 h, the culture media were collected and diluted 10-fold and 20-fold with water, respectively. Acetonitrile was added to extract the metabolites. The 2-HG content in the culture media was analyzed by LC-MS-MS. The percentage inhibition and IC50 of the compounds on 2-HG in the supernatant were calculated as compared with the control group.

T1 sequence (O75874 whole entry R132H): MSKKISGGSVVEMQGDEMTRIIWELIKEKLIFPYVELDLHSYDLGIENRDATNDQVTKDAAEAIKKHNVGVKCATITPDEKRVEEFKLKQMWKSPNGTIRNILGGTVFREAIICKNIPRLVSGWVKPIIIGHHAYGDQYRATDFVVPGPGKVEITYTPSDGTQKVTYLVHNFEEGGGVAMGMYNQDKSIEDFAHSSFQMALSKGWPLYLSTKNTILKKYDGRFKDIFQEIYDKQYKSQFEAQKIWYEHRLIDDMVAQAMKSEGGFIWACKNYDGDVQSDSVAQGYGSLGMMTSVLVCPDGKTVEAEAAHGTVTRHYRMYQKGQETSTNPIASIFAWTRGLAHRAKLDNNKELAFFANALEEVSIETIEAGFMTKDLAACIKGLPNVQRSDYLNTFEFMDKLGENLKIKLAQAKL

inhibition at 0.001 µM | inhibition at 0.01 µM | inhibition at 0.1 µM | SMILES
30 to 60% | 60 to 90% | > 90% | C=CC(=O)N1CCN(C(CC2CC2)c2ccc([C@H](C)Nc3ncc4[nH]c(=O)n(C)c4n3)cc2)CC1 (stereo partly drawn) [Compound 2]
30 to 60% | > 90% | > 90% | C=CC(=O)N1CCN(C(CC2CC2)c2ccc([C@H](C)Nc3ncc4[nH]c(=O)n(C5CC5)c4n3)cc2)CC1 (stereo partly drawn) [Compound 4]
30 to 60% | > 90% | > 90% | C=CC(=O)N1CCN(C(CC2CC2)c2ccc([C@H](C)Nc3ncc4[nH]c(=O)n(C5CCC5)c4n3)cc2)CC1 (stereo partly drawn) [Compound 5]
< 30% | 60 to 90% | > 90% | C=CC(=O)N1CCN(C(CC2CC2)c2ccc([C@H](C)Nc3ncc4[nH]c(=O)n(C5CCCC5)c4n3)cc2)CC1 (stereo partly drawn) [Compound 6]
30 to 60% | 60 to 90% | > 90% | C=CC(=O)N1CCN(C(CC)c2ccc([C@H](C)Nc3ncc4[nH]c(=O)n(CC)c4n3)cc2)CC1 (stereo partly drawn) [Compound 7]
30 to 60% | > 90% | > 90% | C=CC(=O)N1CCN(C(CC(C)C)c2ccc([C@H](C)Nc3ncc4[nH]c(=O)n(CC)c4n3)cc2)CC1 (stereo partly drawn) [Compound 8]
30 to 60% | 60 to 90% | > 90% | C=CC(=O)N1CCN(C(CC2CCC2)c2ccc([C@H](C)Nc3ncc4[nH]c(=O)n(CC)c4n3)cc2)CC1 (stereo partly drawn) [Compound 10]
30 to 60% | 60 to 90% | > 90% | C=CC(=O)N1CCN(C(CC(C)(C)C)c2ccc([C@H](C)Nc3ncc4[nH]c(=O)n(CC)c4n3)cc2)CC1 (stereo partly drawn) [Compound 11]
30 to 60% | > 90% | > 90% | C=CC(=O)N1CCN(C(CC23CC(C2)C3)c2ccc([C@H](C)Nc3ncc4[nH]c(=O)n(CC)c4n3)cc2)CC1 (stereo partly drawn) [Compound 12]
30 to 60% | 60 to 90% | > 90% | C=CC(=O)N1CCN(C(CC2(C)CC2)c2ccc([C@H](C)Nc3ncc4[nH]c(=O)n(CC)c4n3)cc2)CC1 (stereo partly drawn) [Compound 13]
30 to 60% | > 90% | > 90% | C=CC(=O)N1CCN(C(CC)(CC)c2ccc([C@H](C)Nc3ncc4[nH]c(=O)n(CC)c4n3)cc2)CC1 [Compound 14]
30 to 60% | > 90% | > 90% | C=CC(=O)N1CCN(C2(c3ccc([C@H](C)Nc4ncc5[nH]c(=O)n(CC)c5n4)cc3)CCCC2)CC1 [Compound 15]
30 to 60% | > 90% | > 90% | C=CC(=O)N1CC2(C1)CN(C(CC1CC1)c1ccc([C@H](C)Nc3ncc4[nH]c(=O)n(CC)c4n3)cc1)C2 (stereo partly drawn) [Compound 18]
30 to 60% | 60 to 90% | > 90% | C=CC(=O)N1CCC2(C1)CN(C(CC1CC1)c1ccc([C@H](C)Nc3ncc4[nH]c(=O)n(CC)c4n3)cc1)C2 (stereo partly drawn) [Compound 19]
30 to 60% | 60 to 90% | > 90% | C=CC(=O)N1CCC2(CC1)CN(C(CC1CC1)c1ccc([C@H](C)Nc3ncc4[nH]c(=O)n(CC)c4n3)cc1)C2 (stereo partly drawn) [Compound 20]
30 to 60% | 60 to 90% | > 90% | C=CC(=O)N1CC2(CCN(C(CC3CC3)c3ccc([C@H](C)Nc4ncc5[nH]c(=O)n(CC)c5n4)cc3)C2)C1 (stereo partly drawn) [Compound 21]
60 to 90% | 60 to 90% | > 90% | C=CC(=O)N1CC2(CCN(C(CC3CC3)c3ccc([C@H](C)Nc4ncc5[nH]c(=O)n(CC)c5n4)cc3)CC2)C1 (stereo partly drawn) [Compound 22]
30 to 60% | 60 to 90% | > 90% | C=CC(=O)N1CCC(N(C)C(CC2CC2)c2ccc([C@H](C)Nc3ncc4[nH]c(=O)n(CC)c4n3)cc2)CC1 (stereo partly drawn) [Compound 23]
30 to 60% | 60 to 90% | > 90% | C=CC(=O)N1CC(N(C)C(CC2CC2)c2ccc([C@H](C)Nc3ncc4[nH]c(=O)n(CC)c4n3)cc2)C1 (stereo partly drawn) [Compound 24]
60 to 90% | 60 to 90% | > 90% | C=CC(=O)NC1CN(C(CC2CC2)c2ccc([C@H](C)Nc3ncc4[nH]c(=O)n(CC)c4n3)cc2)C1 (stereo partly drawn) [Compound 25]
60 to 90% | 60 to 90% | > 90% | C=CC(=O)NC1CCN(C(CC2CC2)c2ccc([C@H](C)Nc3ncc4[nH]c(=O)n(CC)c4n3)cc2)CC1 (stereo partly drawn) [Compound 26]
< 30% | 60 to 90% | > 90% | C=CC(=O)N(C)C1CN(C(CC2CC2)c2ccc([C@H](C)Nc3ncc4[nH]c(=O)n(CC)c4n3)cc2)C1 (stereo partly drawn) [Compound 27]
30 to 60% | 60 to 90% | > 90% | C=CC(=O)N(C)C1CCN(C(CC2CC2)c2ccc([C@H](C)Nc3ncc4[nH]c(=O)n(CC)c4n3)cc2)CC1 (stereo partly drawn) [Compound 28]
60 to 90% | > 90% | > 90% | C=CC(=O)N1CCN(C(CC(C)C)c2ccc([C@H](C)Nc3ncc4[nH]c(=O)n(C(C)C)c4n3)cc2)CC1 (stereo partly drawn) [Compound 29]
30 to 60% | > 90% | > 90% | C=CC(=O)N1CCN(C(CC(C)C)c2ccc([C@H](C)Nc3ncc4[nH]c(=O)n(C5CC5)c4n3)cc2)CC1 (stereo partly drawn) [Compound 30]
30 to 60% | > 90% | > 90% | C=CC(=O)N1CCN(C(CC(C)C)c2ccc([C@H](C)Nc3ncc4[nH]c(=O)n(C5CCC5)c4n3)cc2)CC1 (stereo partly drawn) [Compound 31]
30 to 60% | > 90% | > 90% | C=CC(=O)N1CCN(C(CC(C)C)c2ccc([C@H](C)Nc3ncc4[nH]c(=O)n(C5CCCC5)c4n3)cc2)CC1 (stereo partly drawn) [Compound 32]
60 to 90% | > 90% | > 90% | C=CC(=O)N1CCN(C(CC23CC(C2)C3)c2ccc([C@H](C)Nc3ncc4[nH]c(=O)n(C(C)C)c4n3)cc2)CC1 (stereo partly drawn) [Compound 33]
60 to 90% | > 90% | > 90% | C=CC(=O)N1CCN(C(CC23CC(C2)C3)c2ccc([C@H](C)Nc3ncc4[nH]c(=O)n(C5CC5)c4n3)cc2)CC1 (stereo partly drawn) [Compound 34]
30 to 60% | > 90% | > 90% | C=CC(=O)N1CCN(C(CC23CC(C2)C3)c2ccc([C@H](C)Nc3ncc4[nH]c(=O)n(C5CCC5)c4n3)cc2)CC1 (stereo partly drawn) [Compound 35]

SMILES | inhibition at 0.001 µM | inhibition at 0.01 µM | inhibition at 0.1 µM
C=CC(=O)N1CCN(C2(c3ccc([C@H](C)Nc4ncc5[nH]c(=O)n(CC)c5n4)cc3)CCCCC2)CC1 [Compound 16] | 30 to 60% | 60 to 90% | > 90%
C=CC(=O)N1CCN(C2(c3ccc([C@H](C)Nc4ncc5[nH]c(=O)n(CC)c5n4)cc3)CCC(F)(F)CC2)CC1 [Compound 17] | 30 to 60% | 60 to 90% | > 90%
